Results taken from US10858367B2, “Compounds” (GLAXOSMITHKLINE INTELLECTUAL PROPERTY DEVELOPMENT LIMITED, priority 2017, dated 2020).
Structures can show the parent of a compound that is named as a salt.

Biological target: T1, LRRK2 Ser935 phosphorylation in SH-SY5Y cells over-expressing recombinant full length LRRK2 (Homo sapiens, UniProt Q5S007)
T1 construct: A BacMam virus expressing full length recombinant LRRK2 was purchased from Invitrogen; host or cells: SH-SY5Y human neuroblastoma cells transduced with BacMam LRRK2 virus
Assay: Recombinant cellular LRRK2 AlphaScreen assay
Assay type: cell-based
Conditions: human neuroblastoma SH-SY5Y cells, BacMam full length LRRK2, 60 minutes with compound, read-out: pIC50 in the recombinant cellular LRRK2 AlphaScreen assay (converted)
Description: b. Recombinant Cellular LRRK2 AlphaScreen Assay
To determine the activity of compounds against LRRK2 kinase activity in cells, the observed LRRK2 kinase-dependent modulation of LRRK2 Ser 935 phosphorylation (Dzamko et al., 2010, Biochem. J. 430: 405-413) was utilized to develop a quantitative 384 well plate-based immunoassay of LRRK2 Ser935 phosphorylation in the human neuroblastoma cell line SH-SY5Y, engineered to over-express recombinant full length LRRK2 protein.
A BacMam virus expressing full length recombinant LRRK2 was purchased from Invitrogen and amplified by inoculation of SF-9 cells at MOI 0.3 for 4-5 days in Sf-900 III SFM medium supplemented with 3% fetal bovine serum. Infected cell cultures were then centrifuged at 2000 g for 20 minutes, viral supernatant titer determined by anti-gp64 plaque assay and stored at 4° C.
Affinity-purified anti-phospho LRRK2 Ser935 sheep polyclonal antibody (Dzamko et al., 2010, Biochem. J. 430: 405-413) was biotinylated by standard methods (PerkinElmer). Anti-LRRK2 rabbit polyclonal antibody was purchased from Novus Biologicals. AlphaScreen Protein A IgG Kit (including acceptor and donor beads) was purchased from Perkin Elmer.
SH-SY5Y cells were grown in DMEM/F12 medium with 10% dialysed fetal bovine serum and harvested by treatment with 0.5% trypsin-EDTA for 5 minutes at 37° C. followed by centrifugation at 1000 rpm for 4 minutes. The cell pellet was resuspended in Opti-MEM reduced serum media (Invitrogen) at 200,000 cells/ml and mixed with the BacMam LRRK2 virus at MOI=50. 50 μl cell solutions were then dispensed to each well of a 384-well plate and incubated at 37° C., 5% CO2 for 24 hours.
Serial dilutions of test compounds were prepared in Opti-MEM reduced serum media (Invitrogen) and 5.6 ul transferred from compound plate to cell assay plate to achieve a top final assay concentration of 10 uM. DMSO was used in certain wells as controls. Cells were incubated at 37° C., 5% CO2 for 60 minutes. The medium was then removed and cells lysed by addition of 20 ul cell lysis buffer (Cell Signaling Technology) and incubation at 4° C. for 20 minutes. 10 ul of antibody/acceptor bead mix [(1/1000 biotinylated-pS935 LRRK2 antibody, 1/1000 total-LRRK2 antibody, 1/100 Acceptor beads in AlphaScreen detection buffer (25 mM Hepes (pH 7.4), 0.5% Triton X-100, 1 mg/ml Dextran 500 and 0.1% BSA)] was then added to each well and plates incubated for 2 hours at ambient temperature in the dark. 10 μl of donor beads solution (1/33.3 donor beads in AlphaScreen detection buffer) was then added to each well. Following incubation for a further 2 hours at ambient temperature in the dark, plates were read on an EnVision™ plate reader at emission 520-620 nm with excitation 680 nm. Dose response curve data was based on sigmoidal dose-response model.

T1 sequence (Q5S007 whole entry): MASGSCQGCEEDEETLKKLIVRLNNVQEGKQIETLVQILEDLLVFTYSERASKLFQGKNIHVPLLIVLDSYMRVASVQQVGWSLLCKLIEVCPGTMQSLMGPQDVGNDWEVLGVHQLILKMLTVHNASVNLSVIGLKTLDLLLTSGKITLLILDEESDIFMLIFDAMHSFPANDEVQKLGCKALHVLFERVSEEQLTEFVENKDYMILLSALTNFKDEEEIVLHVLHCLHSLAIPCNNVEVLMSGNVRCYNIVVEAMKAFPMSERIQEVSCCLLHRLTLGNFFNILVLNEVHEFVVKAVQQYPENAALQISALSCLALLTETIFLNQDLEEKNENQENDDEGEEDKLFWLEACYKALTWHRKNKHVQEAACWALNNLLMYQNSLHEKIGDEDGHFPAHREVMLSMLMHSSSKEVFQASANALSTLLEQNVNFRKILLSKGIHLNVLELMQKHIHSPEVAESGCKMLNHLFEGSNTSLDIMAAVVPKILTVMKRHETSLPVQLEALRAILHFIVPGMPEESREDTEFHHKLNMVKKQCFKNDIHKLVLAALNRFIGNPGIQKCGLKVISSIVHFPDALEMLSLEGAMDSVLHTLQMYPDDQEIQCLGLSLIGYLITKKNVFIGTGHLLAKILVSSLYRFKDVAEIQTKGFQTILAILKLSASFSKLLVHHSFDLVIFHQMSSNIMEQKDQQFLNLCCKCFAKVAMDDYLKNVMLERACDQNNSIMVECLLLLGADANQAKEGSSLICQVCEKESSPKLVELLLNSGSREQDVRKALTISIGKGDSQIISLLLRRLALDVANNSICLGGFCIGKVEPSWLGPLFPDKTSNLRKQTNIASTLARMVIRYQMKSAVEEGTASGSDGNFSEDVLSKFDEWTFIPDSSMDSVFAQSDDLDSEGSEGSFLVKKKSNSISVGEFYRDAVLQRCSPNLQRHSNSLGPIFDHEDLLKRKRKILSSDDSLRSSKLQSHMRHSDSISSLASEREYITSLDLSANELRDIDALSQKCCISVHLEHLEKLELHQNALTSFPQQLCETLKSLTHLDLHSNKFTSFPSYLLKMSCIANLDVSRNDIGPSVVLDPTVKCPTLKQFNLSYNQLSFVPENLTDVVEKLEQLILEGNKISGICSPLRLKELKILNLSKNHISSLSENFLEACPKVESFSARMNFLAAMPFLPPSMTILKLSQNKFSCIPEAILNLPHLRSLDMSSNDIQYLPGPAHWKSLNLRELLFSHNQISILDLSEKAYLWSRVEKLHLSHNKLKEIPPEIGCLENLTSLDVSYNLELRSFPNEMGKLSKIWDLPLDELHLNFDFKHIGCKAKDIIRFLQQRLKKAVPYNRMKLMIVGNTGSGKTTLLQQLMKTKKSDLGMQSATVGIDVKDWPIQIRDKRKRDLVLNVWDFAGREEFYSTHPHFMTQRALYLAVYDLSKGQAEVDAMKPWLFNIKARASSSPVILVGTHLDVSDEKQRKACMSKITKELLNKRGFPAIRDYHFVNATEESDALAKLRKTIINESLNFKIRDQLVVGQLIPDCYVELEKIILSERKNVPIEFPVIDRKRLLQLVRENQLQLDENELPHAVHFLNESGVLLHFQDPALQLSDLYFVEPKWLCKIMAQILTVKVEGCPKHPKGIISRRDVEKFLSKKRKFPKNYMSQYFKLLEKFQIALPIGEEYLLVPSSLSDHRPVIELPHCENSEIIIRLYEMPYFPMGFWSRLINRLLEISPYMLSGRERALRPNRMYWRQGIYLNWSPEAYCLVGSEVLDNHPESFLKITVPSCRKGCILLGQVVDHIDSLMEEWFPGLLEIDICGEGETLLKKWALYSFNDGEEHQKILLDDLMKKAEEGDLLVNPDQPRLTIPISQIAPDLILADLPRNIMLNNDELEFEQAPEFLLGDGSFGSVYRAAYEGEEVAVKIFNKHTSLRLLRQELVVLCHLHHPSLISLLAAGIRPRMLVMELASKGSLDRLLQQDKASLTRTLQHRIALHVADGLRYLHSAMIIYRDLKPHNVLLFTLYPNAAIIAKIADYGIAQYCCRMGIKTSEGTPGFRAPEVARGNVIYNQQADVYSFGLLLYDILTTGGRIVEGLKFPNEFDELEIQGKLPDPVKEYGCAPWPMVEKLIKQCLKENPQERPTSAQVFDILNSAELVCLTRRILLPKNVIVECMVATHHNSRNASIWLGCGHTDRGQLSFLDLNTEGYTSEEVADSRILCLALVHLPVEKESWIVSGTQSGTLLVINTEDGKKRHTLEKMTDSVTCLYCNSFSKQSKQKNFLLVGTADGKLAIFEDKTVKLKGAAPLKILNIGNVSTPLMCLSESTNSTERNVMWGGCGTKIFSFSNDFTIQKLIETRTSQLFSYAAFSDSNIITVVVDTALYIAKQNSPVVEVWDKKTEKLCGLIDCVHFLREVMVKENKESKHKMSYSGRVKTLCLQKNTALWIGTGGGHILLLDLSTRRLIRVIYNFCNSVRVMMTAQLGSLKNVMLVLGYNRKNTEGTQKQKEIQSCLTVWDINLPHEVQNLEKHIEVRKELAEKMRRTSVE

## Cc1nc(N2CC3CC2CO3)cc(-n2ncc3cc(C)c([C@H]4CC[C@@](C)(O)CC4)cc32)n1 (single isomer, unassigned) [Example E9]
  IC50: ≤ 1000 nM

## Cc1nc(N2CC3CC2CO3)cc(-n2ncc3cc(C)c([C@H]4CC[C@](C)(O)CC4)cc32)n1 (single isomer, unassigned) [Example E10]
  IC50: ≤ 1000 nM

## COc1nc(N2CC3CC2CO3)cc(-n2ncc3cc(C)c([C@H]4CC[C@@](C)(O)CC4)cc32)n1 (single isomer, unassigned) [Example E11]
  IC50: ≤ 10 nM

## COc1nc(N2CC3CC2CO3)cc(-n2ncc3cc(C)c([C@H]4CC[C@](C)(O)CC4)cc32)n1 (single isomer, unassigned) [Example E12]
  IC50: ≤ 1000 nM

## COc1nc(N2C[C@H]3C[C@@H]2CO3)cc(-n2ncc3cc(C)c(C4CCN(C5CCOC5)CC4)cc32)n1 (single isomer, unassigned) [Example E13]
  IC50: ≤ 1000 nM

## COc1nc(N2C[C@@H]3C[C@H]2CO3)cc(-n2ncc3cc(C)c(C4CCN(C5CCOC5)CC4)cc32)n1 (single isomer, unassigned) [Example E15]
  IC50: ≤ 1000 nM

## COc1nc(N2C[C@H]3C[C@@H]2CO3)cc(-n2ncc3cc(C)c(C4CCN(CCO)CC4F)cc32)n1 (single isomer, unassigned) [Example E17]
  IC50: ≤ 10 nM

## COc1nc(N2CC3CC2CO3)cc(-n2ncc3cc(C)c(C4CCN(CCO)CC4F)cc32)n1 (single isomer, unassigned) [Example E18]
  IC50: ≤ 10 nM

## COc1nc(N2C[C@@H]3C[C@H]2CO3)cc(-n2ncc3cc(C)c(C4CCN(CCO)CC4F)cc32)n1 (single isomer, unassigned) [Example E19]
  IC50: ≤ 1000 nM

## Cc1nc(N2C[C@@H]3C[C@H]2CO3)cc(-n2ncc3cc(C)c(C4CCN(CCO)CC4F)cc32)n1 (single isomer, unassigned) [Example E21]
  IC50: ≤ 1000 nM

## Cc1nc(N2CC3CC2CO3)cc(-n2ncc3cc(C)c(C4CCN(CCO)CC4F)cc32)n1 (single isomer, unassigned) [Example E23]
  IC50: ≤ 1000 nM

## Cc1nc(N2C[C@@H]3C[C@H]2CO3)cc(-n2ncc3cc(Cl)c(N4CCC(C)(O)C4)cc32)n1 (single isomer, unassigned) [Example E47]
  IC50: ≤ 1000 nM

## Cc1nc(N2C[C@H]3C[C@@H]2CO3)cc(-n2ncc3cc(Cl)c(N4CCC(C)(O)C4)cc32)n1 (single isomer, unassigned) [Example E49]
  IC50: ≤ 1000 nM

## COc1nc(N2CC3CCC2CO3)cc(-n2ncc3cc(C)c(C4CCN(C5CCOC5)CC4)cc32)n1 (single isomer, unassigned) [Example E64, 5-(2-methoxy-6-(5-methyl-6-(1-(tetrahydrofuran-3-yl)piperidin-4-yl)-1H-indazol-1-yl)pyrimidin-4-yl)-2-oxa-5-azabicyclo[2.2.2]octane]
  IC50: ≤ 1000 nM

## COc1nc(N2C[C@H]3C[C@@H]2CO3)cc(-n2ncc3cc(Cl)c(C4CCN(C5CCOC5)CC4)cc32)n1 (single isomer, unassigned) [Example E67]
  IC50: ≤ 1000 nM

## COc1nc(N2C[C@@H]3C[C@H]2CO3)cc(-n2ncc3cc(Cl)c(C4CCN(C5CCOC5)CC4)cc32)n1 (single isomer, unassigned) [Example E69]
  IC50: ≤ 1000 nM

## COc1nc(N2C[C@H]3C[C@@H]2CO3)cc(-n2ncc3cc(C)c(C4CCC(N5CCOCC5)CC4)cc32)n1 (single isomer, unassigned) [Example E71]
  IC50: ≤ 1000 nM

## Cc1nc(N2CC3CC2CC3C(=O)O)cc(-n2ncc3cc(C)c(C4CCC(C)(O)CC4)cc32)n1 (single isomer, unassigned) [Example E75, 2-(6-(6-(cis-4-hydroxy-4-methylcyclohexyl)-5-methyl-1H-indazol-1-yl)-2-methylpyrimidin-4-yl)-2-azabicyclo[2.2.1]heptane-5-carboxylic Acid]
  IC50: ≤ 10 nM

## Cc1nc(N2CC3CC2CC3C(=O)O)cc(-n2ncc3cc(C)c(C4CCC(C)(O)CC4)cc32)n1 (single isomer, unassigned) [Example E76, 2-(6-(6-(cis-4-hydroxy-4-methylcyclohexyl)-5-methyl-1H-indazol-1-yl)-2-methylpyrimidin-4-yl)-2-azabicyclo[2.2.1]heptane-5-carboxylic Acid, TFA Salt]
  IC50: ≤ 10 nM

## Cc1nc(N2CC3CC(C2)C3C(=O)O)cc(-n2ncc3cc(C)c([C@H]4CC[C@@](C)(O)CC4)cc32)n1 (single isomer, unassigned) [Example E77, Cis-3-{6-[6-(4-Hydroxy-4-methyl-cyclohexyl)-5-methyl-indazol-1-yl]-2-methyl-pyrimidin-4-yl}-3-aza-bicyclo[3.1.1]heptane-6-carboxylic Acid]
  IC50: ≤ 1000 nM

## Cc1nc(N2CC3CC(C2)C3C(=O)O)cc(-n2ncc3cc(C)c(C4CCC(C)(O)CC4)cc32)n1 (single isomer, unassigned) [Example E78, Cis-3-{6-[6-(4-Hydroxy-4-methyl-cyclohexyl)-5-methyl-indazol-1-yl]-2-methyl-pyrimidin-4-yl}-3-aza-bicyclo[3.1.1]heptane-6-carboxylic Acid]
  IC50: ≤ 10 nM

## Cc1nc(N2CC3CC2CC3C(=O)O)cc(-n2ncc3cc(C)c(C4CCOCC4)cc32)n1 (single isomer, unassigned) [Example E82, 2-{2-Methyl-6-[5-methyl-6-(tetrahydro-pyran-4-yl)-indazol-1-yl]-pyrimidin-4-yl}-2-aza-bicyclo[2.2.1]heptane-5-carboxylic Acid]
  IC50: ≤ 1000 nM

## COc1nc(N2CC3CC2CC3C(=O)O)cc(-n2ncc3cc(Cl)c(O[C@H]4CCOC4)cc32)n1 (single isomer, unassigned) [Example E84]
  IC50: ≤ 1000 nM

## COc1nc(N2CC3CC2CC3C(=O)O)cc(-n2ncc3cc(Cl)c(O[C@@H]4CCOC4)cc32)n1 (single isomer, unassigned) [Example E85]
  IC50: ≤ 1000 nM

## COc1nc(N2CC3CC2CO3)cc(-n2ncc3cc(C)c(C4CCN(C5COC5)CC4O)cc32)n1 (single isomer, unassigned) [Example E132]
  IC50: ≤ 1000 nM

## COc1nc(N2CC3CC2CO3)cc(-n2ncc3cc(C)c(C4CCN(C5CCOC5)CC4O)cc32)n1 (single isomer, unassigned) [Example E135]
  IC50: ≤ 1000 nM

## Cc1nc(N2CC3CC2CO3)cc(-n2ncc3cc(C)c(C4CCN([C@H]5CCOC5)CC4O)cc32)n1 (single isomer, unassigned) [Example E137]
  IC50: ≤ 1000 nM

## Cc1nc(N2CC3CC2CO3)cc(-n2ncc3cc(C)c(C4CCN(C5COC5)CC4O)cc32)n1 (single isomer, unassigned) [Example E141]
  IC50: ≤ 1000 nM

## Cc1nc(N2C[C@H]3C[C@@H]2CO3)cc(-n2ncc3cc(C)c(C4CCN(C5COC5)CC4(C)O)cc32)n1 (single isomer, unassigned) [Example E147]
  IC50: ≤ 1000 nM

## Cc1nc(N2C[C@H]3C[C@@H]2CO3)cc(-n2ncc3cc(C)c(C4CCN(C5CCOC5)CC4F)cc32)n1 (single isomer, unassigned) [Example E149]
  IC50: ≤ 1000 nM

## Cc1nc(N2C[C@@H]3C[C@H]2CO3)cc(-n2ncc3cc(C)c(C4CCN(C5CCOC5)CC4F)cc32)n1 (single isomer, unassigned) [Example E151]
  IC50: ≤ 1000 nM
